Series [1] deals with Rift Valley fever virus. The series can be described thus: Antiviral activity against Rift Valley fever virus. The class given is functional.
The next series concerns unidentified adenovirus. The series can be described thus: Antiviral activity against Adenovirus. The class given is functional.
For the next series, the system named is Usutu virus. The series can be described thus: Antiviral activity against Usutu virus. The class given is functional.
The subject of another series is Tacaribe virus. The series can be described thus: Antiviral activity against Tacaribe virus. The class given is functional. Conditions: Mammarenavirus tacaribeense.
A further series concerns Measles morbillivirus. Nature of the series: Antiviral activity against measles virus. The class given is functional.
The subject of series [2] is Vesicular stomatitis virus. Nature of the series: Antiviral activity against vesicular stomatitis virus infected in PRK cells assessed as reduction in virus-induced cytopathic effect after 1 to 2 days. The class given is functional, cell-based.
The subject of the next series is Zika virus. Nature of the series: Antiviral activity against Zika virus. The class given is functional.
For series [3], the system named is Japanese encephalitis virus. Nature of the series: Antiviral activity against Japanese encepahalitis virus. The class given is functional.
Series [4] deals with West Nile virus. Nature of the series: Antiviral activity against West Nile virus. The class given is functional.
A further series deals with Punta Toro virus. The series can be described thus: Antiviral activity against Punta Toro virus. The class given is functional.
For the next series, the system named is Enterovirus C. The series can be described thus: Antiviral activity against Poliovirus. The class given is functional.
The subject of another series is Ebolavirus. Nature of the series: Antiviral activity against Ebolavirus. The class given is functional. Conditions: for EC50: Orthoebolavirus.
The next series concerns Vero. Nature of the series: (§1) Cytotoxicity against African green monkey Vero cells assessed as reduction in cell viability. Conditions: chlorocebus sabaeus, vero. The class given is cell-based.
Another series concerns Chikungunya virus. Nature of the series: Antiviral activity against Chikungunya virus. The class given is functional.
Another series concerns Norovirus. Nature of the series: Antiviral activity against Norovirus. The class given is functional.
The test system of series [5] is Venezuelan equine encephalitis virus. The series can be described thus: Antiviral activity against Venezuelan equine encephalitis virus. The class given is functional.
The subject of series [6] is Dengue virus. Nature of the series: Antiviral activity against Dengue virus. The class given is functional.
The subject of series [7] is Yellow fever virus. Nature of the series: Antiviral activity against Yellow fever virus. The class given is functional.
The next series has as its system Vaccinia virus. The series can be described thus: Antiviral activity against vaccinia virus infected in PRK cells assessed as reduction in virus-induced cytopathic effect after 2 to 3 days. The class given is functional, cell-based. Conditions: Orthopoxvirus vaccinia.
In series [8] the test system is Rift Valley fever virus. The series can be described thus: Antiviral activity against Rift Valley fever virus infected in African green monkey Vero cells. The class given is functional.
The test system of series [9] is Dengue virus. Nature of the series: Antiviral activity against Dengue virus infected in African green monkey Vero cells. The class given is functional.
Series [10] deals with Venezuelan equine encephalitis virus. The series can be described thus: Antiviral activity against Venezuelan equine encephalitis virus infected in African green monkey Vero cells. The class given is functional.
The nature of series [11]: as §1. The class given is cell-based. The following applies: chlorocebus sabaeus, Vero cells.
Series [12] has as its system Yellow fever virus. The series can be described thus: Antiviral activity against Yellow fever virus infected in African green monkey Vero cells. The class given is functional.
Series [13] relates to West Nile virus. The series can be described thus: Antiviral activity against West Nile virus infected in African green monkey Vero cells. The class given is functional.
For series [14], the system named is Japanese encephalitis virus. Nature of the series: Antiviral activity against Japanese encepahalitis virus infected in African green monkey Vero cells. The class given is functional.

≈ marks a conversion by molar mass, not a printed value. Calls of active or inactive are those of the source. The rule behind the calls is not given here. A value given as a limit tells only on which side of the number the result lay.

What is called EC50 is the concentration needed to bring the measured effect to its halfway point. Consider `Nc1nccc2c1ncn2[C@H]1C=C[C@H](O)[C@@H]1O` (relative stereo), for which the outcome in the series on Rift Valley fever virus [1], with unidentified adenovirus, in the series on Usutu virus, in the series with Tacaribe virus, in the series with Measles morbillivirus and in the series with Zika virus was inactive. Further, the result (in [3]; with West Nile virus [4]; in the series with Punta Toro virus; in the series on Enterovirus C; in the series with Chikungunya virus; in series [5]) was inactive. Further, the outcome in the series on Dengue virus [6] and in the series on Yellow fever virus [7] was inactive. The EC50 turned out to be 0.2 µg/mL (≈ 0.861 µM) in [2], 29.5 µg/mL (≈ 127 µM) in the series with Ebolavirus, 4.2 µM in the series on Norovirus and 0.7 µg/mL (≈ 3.01 µM) with Vaccinia virus. Moreover, in the series on Vero, the Activity result is on record as “Non-Toxic”.
Regarding `Nc1nccc2c1ncn2[C@@H]1[C@@H](O)[C@@H](O)[C@H]2C[C@H]21`, the result in the series on Rift Valley fever virus [1], in the series with unidentified adenovirus, in the series with Usutu virus, in the series on Tacaribe virus, in the series on Measles morbillivirus and in the series with Zika virus was inactive. In addition, the outcome (in [3]; in the series with West Nile virus [4]; with Punta Toro virus; in the series on Enterovirus C; in the series on Ebolavirus; in the series with Chikungunya virus) was inactive. Besides, the outcome (in series [5]; with Dengue virus [6]; in the series on Yellow fever virus [7]) was inactive. The Activity entry in the series on Vero is on record as “Non-Toxic”. The EC50 in the series on Norovirus is greater than 100 µM.
With `Nc1ncc(Br)c2c1ncn2[C@@H]1[C@@H](O)[C@@H](O)[C@H]2C[C@H]21`, the outcome in the series with Rift Valley fever virus [1], in the series on unidentified adenovirus, in the series with Usutu virus, in the series on Tacaribe virus, with Measles morbillivirus and with Zika virus was inactive. Further, the outcome (in series [3]; in the series with West Nile virus [4]; with Punta Toro virus; in the series on Enterovirus C; with Ebolavirus; in the series with Chikungunya virus) was inactive. The outcome (in series [5]; with Dengue virus [6]; in the series on Yellow fever virus [7]) was inactive. Besides, in the series with Vero, the Activity entry is “Non-Toxic”. Besides, a half-maximal effect with Norovirus (EC50) was put at 3 µM.
By IC50 is commonly meant the concentration that gives 50% inhibition. Usually CC50 stands for the concentration at which the toxic effect on the cells reaches its halfway point. `Nc1ncc(Br)c2c1ncn2[C@H]1C=C[C@H](O)[C@@H]1O`: the outcome with Rift Valley fever virus [1], in the series on unidentified adenovirus, with Usutu virus, with Tacaribe virus, in the series on Measles morbillivirus and in the series on Zika virus was inactive. The outcome (in series [3]; in the series with West Nile virus [4]; with Punta Toro virus; in the series on Enterovirus C; with Chikungunya virus; in series [5]) was inactive. The result in the series on Dengue virus [6] and with Yellow fever virus [7] was inactive. Besides, the half-inhibitory concentration (IC50) in the series with Rift Valley fever virus [8] was 31 µg/mL (≈ 99.6 µM); in the series on Dengue virus [9], 7.2 µg/mL (≈ 23.1 µM); in series [10] it was 27 µg/mL (≈ 86.8 µM); with Yellow fever virus [12], 32 µg/mL (≈ 103 µM); in the series with West Nile virus [13] it was 32 µg/mL (≈ 103 µM); in series [14], 32 µg/mL (≈ 103 µM). In addition, the EC50 with Ebolavirus worked out at 8.3 µg/mL (≈ 26.7 µM); in the series with Norovirus, 33 µM. Moreover, in series [11], the CC50 fell in the range of 27 to 32 µg/mL (≈ 86.8 to 103 µM).

Values taken from ChEMBL document CHEMBL4043174, “Synthesis, conformational study and antiviral activity of l-like neplanocin derivatives” (Bioorg Med Chem Lett, 2017).
